Legend:
[1] = tested on: verapamil binding site of the L-type calcium channel; test: Inhibition of [3H]D888 binding to the verapamil binding site of the L-type calcium channel (rat cerebral cortex membranes); conditions: 10 μmol/l of test substance
Description: 200-250 g male Sprague-Dawley rats are sacrificed by decapitation. Cerebral cortices are quickly dissected on ice and homogenized in a 20 mmol/l Tris-HCl (pH 7.4) buffer containing 250 mmol/l sucrose (buffer A). The homogenate is centrifuged at 30,000 g for 15 min at 4° C. The resulting crude membrane pellet is resuspended in a 50 mmol/l Tris-HCl (pH 7.4) buffer and incubated 15 min at 37° C. before being centrifuged at 30,000×g for 15 min at 4° C. After two more washes under the same conditions, the final pellet is resuspended in buffer A at a protein concentration ranging from 15 to 25 mg/ml and stored in liquid nitrogen.
Binding experiments are essentially performed according to Reynolds J. et al., J. Pharmacol. Exp. Ther. (1986), 237, 731-738. (1986) with slight modifications.
Membranes (120-175 μg/assay) are incubated at 25° C. for 60 min in 0.5 ml of a 50 mmol/l Tris-HCl buffer (pH 7.4) containing 2 mmol/l MgCl2, 0.2 to 0.4×10-9 mol/l of [^3H]D888 (85 Ci/mmol; Amersham, Belgium) and 10 μmol/l of the test substance. The non specific binding (NSB) is defined as the residual binding observed in the presence 10 μM verapamil. Membrane-bound and -free radioligands are separated by rapid filtration through glass fiber filters (equivalent to Whatman GF/C or GF/B; VEL, Belgium) presoaked in 0.1% polyethyleneimine to reduce non specific binding. Samples and filters are rinsed by at least 6 ml of 50 mmol/l Tris-HCl (pH 7.4) buffer. […] The radioactivity trapped onto the filters is counted by liquid scintillation in a β-counter.
The inhibition of the radioligand specific binding is calculated as follows: [formula] • where BI and Bo represent the binding observed in the presence and absence of the test substance respectively; and • BNS is the non specific binding.
Data analysis is performed by a computerized non linear curve fitting method using a set of equations describing several binding models assuming competitive interactions between ligands (Weiland G. A. and P. B. Molinoff Life Science (1981), 29, 313-330; Molinoff P. et al. (1981) Life Sci., 29, 427-443).

NK1 receptors = NK1 receptors (Homo sapiens, UniProt P25103); test: Binding of [4,5-3H-Leu10] substance P to human recombinant NK1 receptors expressed in CHO cell membranes; set-up: host or cells: CHO cells; conditions: pIC50 = -log IC50, concentration inhibiting by 50% the specific binding of [4,5-3H] substance P; tested as the free base/salt given in c1
Description: The following test was designed to assess the affinity of test substances for human recombinant NK1 receptors expressed in Chinese Hamster Ovarian (CHO) cells.
CHO cells expressing the human recombinant NK1 receptor are used. The cells were obtained from Euroscreen (Brussels, Belgium).
Cells expressing the human NK1 receptor are routinely cultured in 175 cm2 flasks containing 75 ml of medium F12 (Ham) enriched with 2 mmol/l L-glutamine, 100 IU/ml penicilline, 100 μg/ml streptomycine, 1% sodium pyruvate, 2.5 μg/ml fungizone amphotericin B, 400 μg/ml geneticin and supplemented with 10% foetal calf serum. […] When subcultured, the cells are seeded at a concentration of 50,000 cells/cm2.
Confluent cells are gently scraped and resuspended in 25 ml of phosphate buffered saline without calcium and magnesium. The cellular suspension is centrifuged at 1500×g for 3 min (4° C.). The cell pellet is homogenized in a 15 mmol/l Tris-HCl (pH 7.5) buffer, 2 mmol/l MgCl2, 0.3 mmol/l EDTA, 1 mmol/l EGTA. The crude membrane fraction is collected by two consecutive centrifugation steps at 40,000×g for 25 min (4° C.). The final pellet is resuspended in 20 mmol/l Tris-HCl (pH 7.4), 250 mmol/l sucrose buffer at a protein concentration ranging from 2 to 6 mg/ml and stored in liquid nitrogen. • 1.2.2. Test Design
The inhibition constant (Ki) is determined using increasing concentrations of the test substance. The concentration range usually encompasses 6 log units with variable steps (0.3 to 1 log). Assays are performed in mono- or duplicate.
Membranes are incubated at 25° C. for 60 min in 0.5 ml of a 50 mmol/l Tris-HCl buffer (pH 7.4) containing 2 mmol/l MgCl2, 100 μg/ml bacitracine, 0.1 to 0.4×10^−9 mol/l of [4,5^3H-Leu^10] substance P (specific activity>100 Ci/mmol) and increasing concentrations of the test substance. […] Membrane-bound and free radioligands are separated by rapid filtration through glass fiber filters (equivalent to Whatman GF/C or GF/B; VEL, Belgium) presoaked in 0.1% polyethyleneimine to reduce non specific binding. Samples and filters are rinsed by at least 6 ml of 50 mmol/l Tris-HCl (pH 7.4) buffer.
Initial values for the different variables may be provided by the experimenter.

Chain of NK1 receptors (P25103 whole entry): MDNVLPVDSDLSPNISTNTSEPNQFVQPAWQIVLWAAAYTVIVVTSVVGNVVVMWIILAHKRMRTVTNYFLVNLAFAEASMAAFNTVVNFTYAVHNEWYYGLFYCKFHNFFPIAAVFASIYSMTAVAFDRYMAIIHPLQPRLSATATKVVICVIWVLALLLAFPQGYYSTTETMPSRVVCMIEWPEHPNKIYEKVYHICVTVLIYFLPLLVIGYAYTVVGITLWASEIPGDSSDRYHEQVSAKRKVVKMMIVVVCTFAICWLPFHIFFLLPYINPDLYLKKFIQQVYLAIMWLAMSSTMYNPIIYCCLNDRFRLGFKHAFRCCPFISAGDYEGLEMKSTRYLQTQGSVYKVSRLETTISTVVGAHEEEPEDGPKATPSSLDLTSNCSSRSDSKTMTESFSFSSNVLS

Compound | % inhibition of [3H]D888 binding to the verapamil binding site of the L-type calcium channel [1] | IC50 (NK1 receptors) [nM]
O=C(O)C(c1ccccc1)N1CCN([C@H](COCc2cc(C(F)(F)F)cc(C(F)(F)F)c2)c2ccccc2)CC1 (mixture of isomers) [Compound 244] | −+ (+: inhibition comprised between 20 and 50%) | 39.8
O=C(O)CCCCCN1CCN(C(COCc2cc(C(F)(F)F)cc(C(F)(F)F)c2)c2ccccc2)CC1 (racemic) [Compound 234, 6-{4-[2-(3,5-Bis-trifluoromethyl-benzyloxy)-1-phenyl-ethyl]-piperazin-1-yl}-hexanoic acid] | 0 (0: inhibition < 20%) | 15.8
O=C(O)c1ccccc1CN1CCN(C(COCc2cc(C(F)(F)F)cc(C(F)(F)F)c2)c2ccccc2)CC1 (racemic) [Compound 241] | + (+: inhibition comprised between 20 and 50%) | 7.94
O=C(O)CN1CCN(C(COCc2cc(C(F)(F)F)cc(C(F)(F)F)c2)c2ccc(Br)cc2)CC1 (racemic) [Compound 250] | + (+: inhibition comprised between 20 and 50%) | 79.4
CNC(=O)CN1CCN(C(COCc2cc(C(F)(F)F)cc(C(F)(F)F)c2)c2ccccc2)CC1 (racemic) [Compound 292, 2-{4-[2-(3,5-Bis-trifluoromethyl-benzyloxy)-1-phenyl-ethyl]-piperazin-1-yl}-N-methyl-acetamide] | + (+: inhibition comprised between 20 and 50%) | 15.8
CC(OCC(c1ccccc1)N1CCN(CC(=O)O)CC1)c1cc(C(F)(F)F)cc(C(F)(F)F)c1 (single isomer, unassigned) [Compound 273] | 0 (0: inhibition < 20%) | 3.16
CC(OCC(c1ccccc1)N1CCN(CC(=O)O)CC1)c1cc(C(F)(F)F)cc(C(F)(F)F)c1 (single isomer, unassigned) [Compound 274] | 0 (0: inhibition < 20%) | 12.6
O=C(O)CN1CCN([C@@H](COCc2cc(C(F)(F)F)cc(C(F)(F)F)c2)c2ccccc2)CC1 [Compound 231] | 0 (0: inhibition < 20%) | 79.4
C[C@@H](OC[C@@H](c1ccccc1)N1CCN(CC(=O)O)CC1)c1cc(C(F)(F)F)cc(C(F)(F)F)c1 [Compound 277] | 0 (0: inhibition < 20%) | 10
N#CCN1CCN([C@H](COCc2cc(C(F)(F)F)cc(C(F)(F)F)c2)c2ccccc2)CC1 [Compound 291, (S)-{4-[2-(3,5-Bis-trifluoromethyl-benzyloxy)-1-phenyl-ethyl]-piperazin-1-yl}-acetonitrile] | 0 (0: inhibition < 20%) | 25.1
CC(OCC(c1ccccc1)N1CCN(CCCCc2nnn[nH]2)CC1)c1cc(C(F)(F)F)cc(C(F)(F)F)c1 (stereo not shown) [Compound 302] | + (+: inhibition comprised between 20 and 50%) | 3.98
CS(=O)(=O)NC(=O)COCCN1CCN(C(COCc2cc(C(F)(F)F)cc(C(F)(F)F)c2)c2ccccc2)CC1 (stereo not shown) [Compound 305, N-[(2-{4-[2-(3,5-Bis-trifluoromethyl-benzyloxy)-1-phenyl-ethyl]-piperazin-1-yl}-ethoxy)-acetyl]-methanesulfonamide] | 0 (0: inhibition < 20%) | 79.4
O=C(COCCN1CCN(C(COCc2cc(C(F)(F)F)cc(C(F)(F)F)c2)c2ccccc2)CC1)NS(=O)(=O)c1ccccc1 (stereo not shown) [Compound 306, N-[(2-{4-[2-(3,5-Bis-trifluoromethyl-benzyloxy)-1-phenyl-ethyl]-piperazin-1-yl}-ethoxy)-acetyl]-benzenesulfonamide] | + (+: inhibition comprised between 20 and 50%) | 31.6
Cc1ccc(S(=O)(=O)NC(=O)OCCN2CCN(C(COCc3cc(C(F)(F)F)cc(C(F)(F)F)c3)c3ccccc3)CC2)cc1 (stereo not shown) [Compound 307, N-p-toluenesulfonic-carbamic acid 2-{4-[2-(3,5-bis-trifluoromethyl-benzyloxy)-1-phenyl-ethyl]-piperazin-1-yl}-ethyl ester] | + (+: inhibition comprised between 20 and 50%) | 15.8
O=C(O)C1CCC(N2CCN(C(COCc3cc(C(F)(F)F)cc(C(F)(F)F)c3)c3ccccc3)CC2)CC1 (stereo not drawn) [Compound 313, cis- or trans-4-{4-[2-(3,5-Bis-trifluoromethyl-benzyloxy)-1-phenyl-ethyl]-piperazin-1-yl}-cyclohexanecarboxylic acid] | 0 (0: inhibition < 20%) | 15.8
N#Cc1ccc(C(COCc2cc(C(F)(F)F)cc(C(F)(F)F)c2)N2CCN(CC(=O)O)CC2)cc1 (stereo not shown) [Compound 320, {4-[2-(3,5-Bis-trifluoromethyl-benzyloxy)-1-(4-cyano-phenyl)-ethyl]-piperazin-1-yl}-acetic acid] | 0 (0: inhibition < 20%) | –

Source: patent US6916797B2, “α-arylethylpiperazine derivatives as neurokinin antagonists” (UCB, S.A., priority 2000, dated 2005)
